Experimental data published in patent US20230103791A1 (GLAXOSMITHKLINE INTELLECTUAL PROPERTY DEVELOPMENT LIMITED, priority 2019, published 2023).

Biological target: T1, human Nav1.8 (Homo sapiens, UniProt Q9Y5Y9)
T1 construct: expressed in transfected cells; host or cells: HEK293 (HEK293-Nav1.8)
Test: Nav1.8 sodium channels assay, QPatch 48 HTX electrophysiology in HEK293-Nav1.8 cells
Assay type: cell-based
Settings: at least one set of experimental runs; read-out: average pIC50 value against Nav1.8 (converted)
How it was run: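 IC50 came from 6-8 point curves of P2 current amplitude, normalized to baseline and a positive reference, and corrected for run-down using vehicle-only wells. Automated patch clamp used HEK293-Nav1.8 (with Navβ1 and TREK1) at pH 7.4 outside and CsF-based solution inside. An 8 s inactivating step at −46 mV preceded the 0 mV test pulse, repeated at 0.07 Hz.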

T1 sequence (Q9Y5Y9 whole entry): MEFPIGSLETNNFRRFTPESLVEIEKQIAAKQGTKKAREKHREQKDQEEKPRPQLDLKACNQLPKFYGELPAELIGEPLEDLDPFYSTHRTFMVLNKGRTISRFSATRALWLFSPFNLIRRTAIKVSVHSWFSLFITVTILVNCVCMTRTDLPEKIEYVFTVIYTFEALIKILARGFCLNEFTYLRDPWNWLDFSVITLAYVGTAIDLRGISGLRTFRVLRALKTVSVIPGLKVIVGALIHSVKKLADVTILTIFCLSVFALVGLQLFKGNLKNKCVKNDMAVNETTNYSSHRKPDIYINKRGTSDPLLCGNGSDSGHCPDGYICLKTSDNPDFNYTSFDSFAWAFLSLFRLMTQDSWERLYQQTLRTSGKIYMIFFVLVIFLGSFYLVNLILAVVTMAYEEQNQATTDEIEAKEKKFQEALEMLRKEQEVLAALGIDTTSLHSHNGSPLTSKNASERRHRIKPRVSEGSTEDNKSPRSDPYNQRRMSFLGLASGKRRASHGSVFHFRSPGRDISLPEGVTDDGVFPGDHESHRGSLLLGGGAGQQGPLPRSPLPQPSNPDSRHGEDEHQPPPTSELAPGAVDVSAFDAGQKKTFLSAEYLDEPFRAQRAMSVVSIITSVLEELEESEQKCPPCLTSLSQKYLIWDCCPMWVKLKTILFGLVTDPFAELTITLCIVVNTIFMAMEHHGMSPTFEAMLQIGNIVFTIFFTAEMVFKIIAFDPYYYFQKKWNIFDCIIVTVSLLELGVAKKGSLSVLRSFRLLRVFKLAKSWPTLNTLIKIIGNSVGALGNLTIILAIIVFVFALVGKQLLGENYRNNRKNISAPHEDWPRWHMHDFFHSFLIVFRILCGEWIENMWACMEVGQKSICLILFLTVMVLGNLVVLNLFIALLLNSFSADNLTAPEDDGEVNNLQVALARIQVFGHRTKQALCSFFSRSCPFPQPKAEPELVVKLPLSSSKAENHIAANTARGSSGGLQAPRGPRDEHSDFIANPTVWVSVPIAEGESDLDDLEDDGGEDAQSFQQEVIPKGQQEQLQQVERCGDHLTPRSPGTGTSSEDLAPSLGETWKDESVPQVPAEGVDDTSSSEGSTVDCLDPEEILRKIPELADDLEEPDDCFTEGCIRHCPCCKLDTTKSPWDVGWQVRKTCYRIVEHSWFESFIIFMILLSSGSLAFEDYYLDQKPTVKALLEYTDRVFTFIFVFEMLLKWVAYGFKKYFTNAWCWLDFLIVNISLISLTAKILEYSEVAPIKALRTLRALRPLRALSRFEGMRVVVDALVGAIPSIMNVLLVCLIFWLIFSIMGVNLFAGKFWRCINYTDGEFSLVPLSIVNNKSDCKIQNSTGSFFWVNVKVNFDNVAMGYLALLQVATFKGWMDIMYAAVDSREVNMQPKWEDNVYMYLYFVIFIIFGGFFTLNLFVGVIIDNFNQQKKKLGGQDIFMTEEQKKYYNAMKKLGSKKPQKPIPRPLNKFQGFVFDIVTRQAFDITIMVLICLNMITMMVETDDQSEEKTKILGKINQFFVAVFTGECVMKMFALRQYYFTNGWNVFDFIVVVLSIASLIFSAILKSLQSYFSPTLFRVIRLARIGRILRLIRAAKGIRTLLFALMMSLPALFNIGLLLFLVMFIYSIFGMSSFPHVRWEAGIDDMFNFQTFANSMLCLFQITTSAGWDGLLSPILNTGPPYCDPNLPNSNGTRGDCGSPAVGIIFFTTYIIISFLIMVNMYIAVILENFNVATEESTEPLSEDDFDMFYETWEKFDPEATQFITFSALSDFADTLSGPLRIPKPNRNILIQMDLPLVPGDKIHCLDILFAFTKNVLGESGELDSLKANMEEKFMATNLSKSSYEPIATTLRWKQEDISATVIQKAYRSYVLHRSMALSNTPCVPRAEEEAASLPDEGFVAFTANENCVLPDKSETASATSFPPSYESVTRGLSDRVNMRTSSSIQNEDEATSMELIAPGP
T1 sequence (Q07699 19-218 partner): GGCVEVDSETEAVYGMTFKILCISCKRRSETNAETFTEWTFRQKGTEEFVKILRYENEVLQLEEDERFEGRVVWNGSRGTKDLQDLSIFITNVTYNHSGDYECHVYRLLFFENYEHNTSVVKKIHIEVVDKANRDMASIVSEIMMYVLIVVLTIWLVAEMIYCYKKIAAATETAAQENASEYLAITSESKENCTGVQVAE

IC50 [nM]	Structure (SMILES)
≤ 100	Cc1[nH]c(=O)ccc1N1CN(c2ccc(F)cc2C(C)C)c2ccc(C(F)(F)F)cc2C1=O [Example 178, 1-(4-fluoro-2-isopropylphenyl)-3-(2-methyl-6-oxo-1,6-dihydropyridin-3-yl)-6-(trifluoromethyl)-2,3-dihydroquinazolin-4(1H)-one]
126 to 631	Cc1cc(=O)[nH]cc1N1CN(c2ccc(F)cc2C)c2ccc(C(F)(F)F)cc2C1=O [Example 179, 1-(4-fluoro-2-methylphenyl)-3-(4-methyl-6-oxo-1,6-dihydropyridin-3-yl)-6-(trifluoromethyl)-2,3-dihydroquinazolin-4(1H)-one]
≤ 100	CCc1cc(F)ccc1N1CN(c2ccc(=O)[nH]c2C)C(=O)c2ccc(C(F)(F)F)cc21 [Example 184, 1-(2-ethyl-4-fluorophenyl)-3-(2-methyl-6-oxo-1,6-dihydropyridin-3-yl)-7-(trifluoromethyl)-2,3-dihydroquinazolin-4(1H)-one]
≤ 100	Cc1cc(F)ccc1N1CN(c2ccc(=O)[nH]c2C)C(=O)c2ccc(OC(F)F)cc21 [Example 185, 7-(difluoromethoxy)-1-(4-fluoro-2-methylphenyl)-3-(2-methyl-6-oxo-1,6-dihydropyridin-3-yl)-2,3-dihydroquinazolin-4(1H)-one]
≤ 100	Cc1cc(F)ccc1N1CN(c2ccc(=O)[nH]c2C)C(=O)c2cc(OC(F)(F)F)ccc21 [Example 188, 1-(4-fluoro-2-methylphenyl)-3-(2-methyl-6-oxo-1,6-dihydropyridin-3-yl)-6-(trifluoromethoxy)-2,3-dihydroquinazolin-4(1H)-one]
≤ 100	Cc1cc(OC(F)F)ccc1N1CN(c2ccc(=O)[nH]c2C)C(=O)c2cc(C(F)(F)F)ccc21 [Example 189, 1-(4-(difluoromethoxy)-2-methylphenyl)-3-(2-methyl-6-oxo-1,6-dihydropyridin-3-yl)-6-(trifluoromethyl)-2,3-dihydroquinazolin-4(1H)-one]
794 to 7940	Cc1cc(C(F)(F)F)ccc1N1CN(c2ccc(=O)[nH]c2C)C(=O)c2cc(C(F)(F)F)cnc21 [Example 195, 1-(2-methyl-4-(trifluoromethyl)phenyl)-3-(2-methyl-6-oxo-1,6-dihydropyridin-3-yl)-6-(trifluoromethyl)-2,3-dihydropyrido[2,3-d]pyrimidin-4(1H)-one]
126 to 631	Cc1cc(Cl)ccc1N1CN(c2ccc(=O)[nH]c2C)C(=O)c2cc(C(F)(F)F)cnc21 [Example 196, 1-(4-chloro-2-methylphenyl)-3-(2-methyl-6-oxo-1,6-dihydropyridin-3-yl)-6-(trifluoromethyl)-2,3-dihydropyrido[2,3-d]pyrimidin-4(1H)-one]
794 to 7940	Cc1cc(F)ccc1N1CN(c2ccc(=O)[nH]c2C)C(=O)c2ccc(C(F)(F)CO)cc21 [Example 197, 7-(1,1-difluoro-2-hydroxyethyl)-1-(4-fluoro-2-methylphenyl)-3-(2-methyl-6-oxo-1,6-dihydropyridin-3-yl)-2,3-dihydroquinazolin-4(1H)-one]
≤ 100	Cc1cc(F)ccc1N1CN(c2ccc(=O)[nH]c2C(C)C)C(=O)c2ccc(C(F)(F)F)cc21 [Example 198, 1-(4-fluoro-2-methylphenyl)-3-(2-isopropyl-6-oxo-1,6-dihydropyridin-3-yl)-7-(trifluoromethyl)-2,3-dihydroquinazolin-4(1H)-one]
794 to 7940	Cc1cc(C(F)(F)CO)ccc1N1CN(c2ccc(=O)[nH]c2C)C(=O)c2ccc(C(F)(F)F)cc21 [Example 202, 1-(4-(1,1-difluoro-2-hydroxyethyl)-2-methylphenyl)-3-(2-methyl-6-oxo-1,6-dihydropyridin-3-yl)-7-(trifluoromethyl)-2,3-dihydroquinazolin-4(1H)-one]
≤ 100	Cc1ccc(N2CN(c3ccc(=O)[nH]c3C)C(=O)c3ccc(C(F)(F)F)cc32)c(C)c1 [Example 203, 1-(2,4-dimethylphenyl)-3-(2-methyl-6-oxo-1,6-dihydropyridin-3-yl)-7-(trifluoromethyl)-2,3-dihydroquinazolin-4(1H)-one]

Further lines, the molecule ahead of its results:

Structure (SMILES)	IC50 [nM]
Cc1[nH]c(=O)ccc1N1CN(c2cccc(Cl)c2C)c2ncc(C(F)(F)F)cc2C1=O [Example 175, 1-(3-chloro-2-methylphenyl)-3-(2-methyl-6-oxo-1,6-dihydropyridin-3-yl)-6-(trifluoromethyl)-2,3-dihydropyrido[2,3-d]pyrimidin-4(1H)-one]	126 to 631
CCc1cc(F)ccc1N1CN(c2ccc(=O)[nH]c2C)C(=O)c2cc(C(F)(F)F)cnc21 [Example 176, 1-(2-ethyl-4-fluorophenyl)-3-(2-methyl-6-oxo-1,6-dihydropyridin-3-yl)-6-(trifluoromethyl)-2,3-dihydropyrido[2,3-d]pyrimidin-4(1H)-one]	≤ 100
Cc1[nH]c(=O)ccc1N1CN(c2ccc(F)c(F)c2C)c2ncc(C(F)(F)F)cc2C1=O [Example 177, 1-(3,4-difluoro-2-methylphenyl)-3-(2-methyl-6-oxo-1,6-dihydropyridin-3-yl)-6-(trifluoromethyl)-2,3-dihydropyrido[2,3-d]pyrimidin-4(1H)-one]	≤ 100
Cc1[nH]c(=O)ccc1N1CN(c2ccc(F)cc2C(C)C)c2ccc(F)cc2C1=O [Example 180, 6-fluoro-1-(4-fluoro-2-isopropylphenyl)-3-(2-methyl-6-oxo-1,6-dihydropyridin-3-yl)-2,3-dihydroquinazolin-4(1H)-one]	≤ 100
Cc1[nH]c(=O)ccc1N1CN(c2ccc(F)cc2C2CC2)c2ccccc2C1=O [Example 181, 1-(2-cyclopropyl-4-fluorophenyl)-3-(2-methyl-6-oxo-1,6-dihydropyridin-3-yl)-2,3-dihydroquinazolin-4(1H)-one]	126 to 631
Cc1[nH]c(=O)ccc1N1CN(c2ccc(F)cc2C2CC2)c2cc(C(F)(F)F)ccc2C1=O [Example 182, 1-(2-cyclopropyl-4-fluorophenyl)-3-(2-methyl-6-oxo-1,6-dihydropyridin-3-yl)-7-(trifluoromethyl)-2,3-dihydroquinazolin-4(1H)-one]	≤ 100
Cc1cc(F)ccc1N1CN(c2ccc(=O)[nH]c2C)C(=O)c2c(F)cccc21 [Example 183, 5-fluoro-1-(4-fluoro-2-methylphenyl)-3-(2-methyl-6-oxo-1,6-dihydropyridin-3-yl)-2,3-dihydroquinazolin-4(1H)-one]	126 to 631
Cc1cc(F)ccc1-n1c(=O)n(-c2ccc(=O)[nH]c2)c(=O)c2ccc(C(F)(F)F)cc21 [Example 186, 1-(4-fluoro-2-methylphenyl)-3-(6-oxo-1,6-dihydropyridin-3-yl)-7-(trifluoromethyl) quinazoline-2,4(1H,3H)-dione]	794 to 7940
Cc1cc(F)ccc1N1CN(c2ccc(=O)[nH]c2C)C(=O)c2ccc(C3CC3)cc21 [Example 187, 7-cyclopropyl-1-(4-fluoro-2-methylphenyl)-3-(2-methyl-6-oxo-1,6-dihydropyridin-3-yl)-2,3-dihydroquinazolin-4(1H)-one]	≤ 100
CCc1[nH]c(=O)ccc1N1CN(c2ccc(F)cc2C)c2cc(OC(F)(F)F)ccc2C1=O [Example 190, 3-(2-ethyl-6-oxo-1,6-dihydropyridin-3-yl)-1-(4-fluoro-2-methylphenyl)-7-(trifluoromethoxy)-2,3-dihydroquinazolin-4(1H)-one]	≤ 100
CCc1cc(F)ccc1N1CN(c2ccc(=O)[nH]c2C)C(=O)c2cc(Cl)c(F)cc21 [Example 191, 6-chloro-1-(2-ethyl-4-fluorophenyl)-7-fluoro-3-(2-methyl-6-oxo-1,6-dihydropyridin-3-yl)-2,3-dihydroquinazolin-4(1H)-one]	≤ 100
CCc1cc(F)ccc1N1CN(c2ccc(=O)[nH]c2C)C(=O)c2cc(Cl)c(C#N)cc21 [Example 192, 6-chloro-1-(2-ethyl-4-fluorophenyl)-3-(2-methyl-6-oxo-1,6-dihydropyridin-3-yl)-4-oxo-1,2,3,4-tetra-hydroquinazoline-7-carbonitrile]	≤ 100
Cc1cc(F)ccc1N1CN(c2ccc(=O)[nH]c2C)C(=O)c2c1cc(F)c(Cl)c2F [Example 193, 6-chloro-5,7-difluoro-1-(4-fluoro-2-methylphenyl)-3-(2-methyl-6-oxo-1,6-dihydropyridin-3-yl)-2,3-dihydroquinazolin-4(1H)-one]	≤ 100
Cc1cc(F)ccc1N1CN(c2ccc(=O)[nH]c2C)C(=O)c2c1cc(C#N)c(Cl)c2F [Example 194, 6-chloro-5-fluoro-1-(4-fluoro-2-methylphenyl)-3-(2-methyl-6-oxo-1,6-dihydropyridin-3-yl)-4-oxo-1,2,3,4-tetra-hydroquinazoline-7-carbonitrile]	≤ 100
Cc1cc(F)ccc1N1CN(c2ccc(=O)[nH]c2NCCO)C(=O)c2ccc(C(F)(F)F)cc21 [Example 199, 1-(4-fluoro-2-methylphenyl)-3-(2-((2-hydroxy-ethyl)amino)-6-oxo-1,6-dihydropyridin-3-yl)-7-(trifluoromethyl)-2,3-dihydroquinazolin-4(1H)-one]	126 to 631
Cc1[nH]c(=O)ccc1N1CN(c2ccc(F)cc2N(C)C)c2ccc(Cl)cc2C1=O [Example 200, 6-chloro-1-(2-(dimethylamino)-4-fluorophenyl)-3-(2-methyl-6-oxo-1,6-dihydropyridin-3-yl)-2,3-dihydroquinazolin-4(1H)-one]	≤ 100
CNc1cc(F)ccc1N1CN(c2ccc(=O)[nH]c2C)C(=O)c2cc(Cl)ccc21 [Example 201, 6-chloro-1-(4-fluoro-2-(methylamino)phenyl)-3-(2-methyl-6-oxo-1,6-dihydropyridin-3-yl)-2,3-dihydroquinazolin-4(1H)-one]	≤ 100
Cc1cc(F)ccc1N1CN(c2ccc[nH]c2=O)C(=O)c2ccc(C(F)(F)F)cc21 [Example 204, 1-(4-fluoro-2-methylphenyl)-3-(2-oxo-1,2-dihydropyridin-3-yl)-7-(trifluoromethyl)-2,3-dihydroquinazolin-4(1H)-one]	794 to 7940
